Counter-ions that a name gives are not always drawn. Like-named read-outs stand apart in the source and are kept apart here.
Legend:
Format in all cases: biochemical
recombinant PRL-1 = target: T1, recombinant PRL-1 (Homo sapiens, UniProt Q93096); experiment: In vitro phosphatase assay (DiFMUP hydrolysis), PRL-1; note: test concentration or dose not given here
T1 construct: 6xHis (N, cleaved yes); made in house; host or cells: E. coli One Shot BL21 Star
T1 sequence (Q93096 1-173): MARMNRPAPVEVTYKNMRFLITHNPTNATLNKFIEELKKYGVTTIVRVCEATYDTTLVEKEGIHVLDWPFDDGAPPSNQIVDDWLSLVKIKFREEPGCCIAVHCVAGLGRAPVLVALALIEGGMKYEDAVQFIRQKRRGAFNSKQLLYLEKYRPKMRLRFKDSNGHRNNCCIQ

recombinant PRL-3 = target: T2, recombinant PRL-3 (Homo sapiens, UniProt O75365); experiment: In vitro phosphatase assay (DiFMUP hydrolysis), PRL-3; note: test concentration or dose not given here
T2 construct: 6xHis (N, cleaved yes); made in house; host or cells: E. coli One Shot BL21 Star

recombinant PRL-2 = target: T3, recombinant PRL-2 (Homo sapiens, UniProt Q12974); experiment: In vitro phosphatase assay (DiFMUP hydrolysis), PRL-2;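 note: PRL-2 activity read as DiFMUP hydrolysis after 20 min at room temperature with drug, enzyme first pre-reduced at 4 °C for 20 min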
T3 construct: 6xHis (N, cleaved yes); made in house; host or cells: E. coli One Shot BL21 Star
T3 sequence (Q12974 1-167): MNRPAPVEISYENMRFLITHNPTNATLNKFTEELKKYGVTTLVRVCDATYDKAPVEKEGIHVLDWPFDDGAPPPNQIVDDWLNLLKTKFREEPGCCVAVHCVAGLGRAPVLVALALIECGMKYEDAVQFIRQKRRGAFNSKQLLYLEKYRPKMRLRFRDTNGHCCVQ
Description: Briefly, protein was diluted in reaction buffer and allowed to incubate at 4 °C for 20 min to allow for full reduction of the active site. DiFMUP, drug, and protein were added, and plates were incubated for 20 min at room temperature. Fluorescence intensities were measured on a Cytation 5 plate reader (Biotek) at an EX:360 nm and EM:460 nm. […] Inhibition selectivity for PRLs over a panel of other phosphatases was determined using PhosphataseProfiler (Eurofins, Cat # PP260).

[1] = FDA-approved drug screen, compared to DMSO
[2] = FDA-approved drug screen, activity compared to DMSO

T2 sequence (O75365 whole entry): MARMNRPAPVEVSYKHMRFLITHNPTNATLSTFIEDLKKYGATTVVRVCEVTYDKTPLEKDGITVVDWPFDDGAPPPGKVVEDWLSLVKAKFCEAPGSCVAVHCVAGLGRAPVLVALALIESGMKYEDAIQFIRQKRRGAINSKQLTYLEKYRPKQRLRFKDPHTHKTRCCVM

Structure (SMILES) | % Phosphatase Activity (compared to DMSO) PRL-1 (recombinant PRL-1; [1]) [%] | % Phosphatase Activity (compared to DMSO) PRL-3 (recombinant PRL-3; [1]) [%] | % Phosphatase Activity (compared to DMSO) PRL-2 (recombinant PRL-2; [1]) [%] | other results
C[C@H]1C[C@H]2[C@@H]3CCC4=CC(=O)C=C[C@]4(C)[C@@]3(F)[C@@H](O)C[C@]2(C)[C@@]1(O)C(=O)CO [Betamethasone] | 95 | 72 | 88 | –
Cc1ccc(C(=O)c2cc(O)c(O)c([N+](=O)[O-])c2)cc1 [Tolcapone] | – | – | – | % Phosphatase Activity (compared to DMSO) PRL-1 (recombinant PRL-1; [2]): 78%; % Phosphatase Activity (compared to DMSO) PRL-3 (recombinant PRL-3; [2]): 71%; % Phosphatase Activity (compared to DMSO) PRL-2 (recombinant PRL-2; [2]): 89%
CNC(=O)[C@H](Cc1c[nH]c2ccccc12)NC(=O)[C@@H](CC(=O)NO)CC(C)C [Ilomastat (GM6001, Galardin)] | 94 | 91 | 80 | –
Cl.N[C@@H]1C[C@H]1c1ccccc1 (racemic) [Tranylcypromine (2-PCPA) HCl] | – | – | – | % Phosphatase Activity (compared to DMSO) PRL-1 (recombinant PRL-1): 111%; % Phosphatase Activity (compared to DMSO) PRL-3 (recombinant PRL-3): 87%; % Phosphatase Activity (compared to DMSO) PRL-2 (recombinant PRL-2): 110%
CC1CNc2c(cccc2S(=O)(=O)N[C@@H](CCCNC(=N)N)C(=O)N2CC[C@@H](C)C[C@@H]2C(=O)O)C1 (stereo partly drawn) [Argatroban] | 104 | 80 | 100 | –
O=c1ccc2ccc(OCCCCN3CCN(c4cccc5sccc45)CC3)cc2[nH]1 [Brexpiprazole] | 97 | 92 | 115 | –
Cc1cc(O)ccc1Cl [Chlorocresol] | 89 | 77 | 101 | –
CC(=O)O[C@H]1C(=O)[C@@]2(C)[C@H]([C@H](OC(=O)c3ccccc3)[C@]3(O)C[C@H](OC(=O)[C@H](O)[C@@H](NC(=O)c4ccccc4)c4ccccc4)C(C)=C1C3(C)C)[C@]1(OC(C)=O)CO[C@@H]1C[C@@H]2O [Paclitaxel] | 94 | 76 | 97 | –
CCC[C@@H]1C[C@@H](C(=O)N[C@@H]([C@H]2O[C@H](SC)[C@H](O)[C@@H](O)[C@H]2O)[C@@H](C)O)N(C)C1 [Lincomycin HCl] | 109 | 76 | 111 | –
CN[C@@H]1[C@H](O[C@H]2[C@H](O[C@H]3[C@H](O)[C@@H](O)[C@H](NC(=N)N)[C@@H](O)[C@@H]3NC(=N)N)O[C@@H](C)[C@]2(O)CO)O[C@@H](CO)[C@H](O)[C@H]1O [Dihydrostreptomycin sulfate] | 89 | 110 | 90 | –
CC(C)NCC(O)COc1ccc(CCOCC2CC2)cc1.Cl (stereo not drawn) [Betaxolol hydrochloride (Betoptic)] | – | – | – | % Phosphatase Activity (compared to DMSO) PRL-1 (recombinant PRL-1): 84%; % Phosphatase Activity (compared to DMSO) PRL-3 (recombinant PRL-3): 97%; % Phosphatase Activity (compared to DMSO) PRL-2 (recombinant PRL-2): 99%
OCC(CO)N[C@H]1C[C@](O)(CO)[C@@H](O)[C@H](O)[C@H]1O [Voglibose] | – | – | – | % Phosphatase Activity (compared to DMSO) PRL-1 (recombinant PRL-1; [2]): 98%; % Phosphatase Activity (compared to DMSO) PRL-3 (recombinant PRL-3; [2]): 75%; % Phosphatase Activity (compared to DMSO) PRL-2 (recombinant PRL-2; [2]): 104%
CCN(CC)CCNC(=O)c1c(C)[nH]c(/C=C2\C(=O)Nc3ccc(F)cc32)c1C [Sunitinib Malate] | – | – | – | % Phosphatase Activity (compared to DMSO) PRL-1 (recombinant PRL-1; [2]): 80%; % Phosphatase Activity (compared to DMSO) PRL-3 (recombinant PRL-3; [2]): 65%; % Phosphatase Activity (compared to DMSO) PRL-2 (recombinant PRL-2; [2]): 76%
CNC[C@H](O)c1cccc(O)c1 [Phenylephrine HCl] | 103 | 85 | 98 | –
COC(=O)C1=C(C#N)NC(C)=C(C(=O)OC(C)C)C1c1cccc([N+](=O)[O-])c1 (stereo not drawn) [Nilvadipine] | 88 | 87 | 82 | –
CCc1c2c(nc3ccc(OC(=O)N4CCC(N5CCCCC5)CC4)cc13)-c1cc3c(c(=O)n1C2)COC(=O)[C@]3(O)CC.Cl.O.O.O [Irinotecan HCl Trihydrate] | 4597 | 4074 | 4207 | –
CC(=O)Nc1ccccc1 [Acetanilide] | 110 | 81 | 110 | –
CN1CCc2nc(C(=O)N[C@@H]3C[C@@H](C(=O)N(C)C)CC[C@@H]3NC(=O)C(=O)Nc3ccc(Cl)cn3)sc2C1 [Edoxaban] | 110 | 106 | 99 | –
CN(C)[C@@H]1C(O)=C(C(N)=O)C(=O)[C@@]2(O)C(O)=C3C(=O)c4c(O)cccc4[C@@](C)(O)[C@H]3C[C@@H]12 [Tetracycline HCl] | – | – | – | % Phosphatase Activity (compared to DMSO) PRL-1 (recombinant PRL-1; [2]): 99%; % Phosphatase Activity (compared to DMSO) PRL-3 (recombinant PRL-3; [2]): 61%; % Phosphatase Activity (compared to DMSO) PRL-2 (recombinant PRL-2; [2]): 86%

Structure (SMILES) | % Phosphatase Activity (compared to DMSO) PRL-1 (recombinant PRL-1; [1]) [%] | % Phosphatase Activity (compared to DMSO) PRL-3 (recombinant PRL-3; [1]) [%] | % Phosphatase Activity (compared to DMSO) PRL-2 (recombinant PRL-2; [1]) [%] | other results
O=C(/C=C/c1cccc(S(=O)(=O)Nc2ccccc2)c1)NO [Belinostat (PXD101)] | 98 | 80 | 104 | –
Cn1c(=O)c2c(ncn2CC2OCCO2)n(C)c1=O [Doxofylline] | 103 | 79 | 109 | –
CCCC(=O)O[C@]1(C(=O)COC(C)=O)CC[C@H]2[C@@H]3C[C@H](F)C4=CC(=O)C=C[C@]4(C)[C@@]3(F)[C@@H](O)C[C@@]21C [Difluprednate] | 82 | 67 | 76 | –
NC(N)=Nc1nc(CSCCC(N)=NS(N)(=O)=O)cs1 [Famotidine] | – | – | – | % Phosphatase Activity (compared to DMSO) PRL-1 (recombinant PRL-1): 110%; % Phosphatase Activity (compared to DMSO) PRL-3 (recombinant PRL-3): 86%; % Phosphatase Activity (compared to DMSO) PRL-2 (recombinant PRL-2): 115%
NC[C@H](CC(=O)O)c1ccc(Cl)cc1 [(R)-baclofen] | 95 | 117 | 121 | –
CC(/C=C1\SC(=S)N(CC(=O)O)C1=O)=C\c1ccccc1 [Epalrestat] | 40 | 74 | 17 | –
Cn1cc(CNCC2CCN(c3ncc(C(=O)NO)cn3)CC2)c2ccccc21 [Quisinostat (JNJ-26481585)] | 121 | 92 | 109 | –
O=N[O-].[Na+] [Sodium Nitrite] | – | – | – | % Phosphatase Activity (compared to DMSO) PRL-1 (recombinant PRL-1): 94%; % Phosphatase Activity (compared to DMSO) PRL-3 (recombinant PRL-3): 75%; % Phosphatase Activity (compared to DMSO) PRL-2 (recombinant PRL-2): 116%
CC(O)C(=O)O.CC(O)C(=O)O.CN1CCN(c2ccc3nc(-c4c(N)c5c(F)cccc5[nH]c4=O)[nH]c3c2)CC1 [Dovitinib (TKI-258) Dilactic Acid] | 92 | 91 | 80 | –
Cn1c(=O)c2c(ncn2CC(O)CO)n(C)c1=O (stereo not drawn) [Dyphylline] | 100 | 75 | 103 | –
NC(=O)c1cccnc1 [Nicotinamide (Vitamin B3)] | 88 | 98 | 95 | –
COc1ccccc1OCCNCC(O)COc1cccc2[nH]c3ccccc3c12 (stereo not drawn) [Carvedilol] | 97 | 111 | 128 | –
Nc1ccc(O)c(C(=O)O)c1 [Mesalamine] | 112 | 82 | 131 | –
Cc1[nH]c(/C=C2\C(=O)Nc3ccccc32)c(C)c1CCC(=O)O [TSU-68 (SU6668, Orantinib)] | – | – | – | % Phosphatase Activity (compared to DMSO) PRL-1 (recombinant PRL-1; [2]): 75%; % Phosphatase Activity (compared to DMSO) PRL-3 (recombinant PRL-3; [2]): 52%; % Phosphatase Activity (compared to DMSO) PRL-2 (recombinant PRL-2; [2]): 52%
CCOC(=O)O[C@]1(C(=O)OCCl)CC[C@H]2[C@@H]3CCC4=CC(=O)C=C[C@]4(C)[C@H]3[C@@H](O)C[C@@]21C [Loteprednol etabonate] | 100 | 82 | 89 | –
CCC[S+]([O-])c1ccc2[nH]c(NC(=O)OC)nc2c1 (stereo not drawn) [Albendazole Oxide] | 93 | 95 | 100 | –
CCCC(CCC)C(=O)O[C@H]1C[C@H]2CC[C@@H](C1)[N+]2(C)C [Anisotropine Methylbromide] | 111 | 77 | 108 | –
OC[C@H]1O[C@@H](c2ccc(Cl)c(Cc3ccc(O[C@H]4CCOC4)cc3)c2)[C@H](O)[C@@H](O)[C@@H]1O [Empagliflozin (BI 10773)] | 109 | 97 | 93 | –
CS(=O)(=O)Nc1ccc([N+](=O)[O-])cc1Oc1ccccc1 [Nimesulide] | – | – | – | % Phosphatase Activity (compared to DMSO) PRL-1 (recombinant PRL-1): 78%; % Phosphatase Activity (compared to DMSO) PRL-3 (recombinant PRL-3): 85%; % Phosphatase Activity (compared to DMSO) PRL-2 (recombinant PRL-2): 83%
